Measurements: the NIST ThermoML archive (doi:10.1016/j.jct.2016.12.021)
Numbers after ± are expanded uncertainties.

Conditions: Liquid, Closed cell (Static) method

Row | vapor or sublimation pressure (293.18 K) | vapor or sublimation pressure (298.15 K) | vapor or sublimation pressure (313.15 K) | vapor or sublimation pressure (323.15 K) | vapor or sublimation pressure (353.15 K) | Structure (SMILES)
1 | 836.8 ± 2.4 kPa | 950.8 ± 2.8 kPa | 1380.1 ± 10 kPa | 1713 ± 4.5 kPa | 3135.4 ± 6.2 kPa | CCC [propane]
2 | 4171.7 ± 11 kPa | 4709.3 ± 12 kPa | – | – | – | FC(F)F [trifluoromethane]
